Like-named read-outs stand apart in the source and are kept apart here.
Experiments:
786-O = assay: Cytotoxicity assay (MTS/MTT), 786-O cells; type: cell-based, human
Description: (§1) Cytotoxicity Assay (MTS Assay)
786-O: human kidney cancer cell strains
(§2) Cells were inoculated in RPMI 1640 cell culture solution with 10% fetal bovine serum (supplemented with 100 ku/L of penicillin, streptomycin, respectively). The petri dishes were left in a cell incubator containing 5% CO2 under the temperature of 37° C. The medium was changed every 2-3 days, and was digested with 0.25% trypsin solution. The cells were subcultured and collected.
(§3) The cells in the exponential phase were formulated into cell suspensions with desired concentrations using RPMI 1640 cell culture solutions containing 10% fetal bovine serum. The suspensions were added into 96-well cell culture plates according to 3,000-5,000 cells per well (100 μl). After being cultured for 24 hr, 100 μl of assay compounds having different concentrations were added into each well. Four parallel tests were conducted for each well. The supernatants were discarded after being cultured for 72-120 hr. 100 μl of 0.5 mg/ml MTT fresh serum-free culture solutions were added into each well. The resultant supernatants were discarded after being cultured for 4 hr at 37° C. Formazan was dissolved with 200 μl DMSO. The resulting mixture was gently shaken for 15 min. Optical absorption values (OD-values) at 570 nm of detection wavelength and 450 nm of reference wavelength were measured with ELISA reader.
(§4) The data were represented by x±s. […]

Hep G2 = assay: Cytotoxicity assay (MTS/MTT), Hep G2 cells; type: cell-based, human; settings: read-out: Inhibitory Concentration 50 for Cell Growth (IC50)
Description: as §1
HePG-2: human liver cancer cell strains
as §2, §3, §4

THP-1 = assay: Cytotoxicity assay (MTS/MTT), THP-1 cells; type: cell-based, human; settings: read-out: Inhibitory Concentration 50 for Cell Growth (IC50)
Description: THP-1: human leukemia cell strains

Kunming mice = assay: Maximum tolerated dose (MTD) in vivo of mice
Description: Assays on Maximum Tolerated Dose (MTD) In Vivo of Mice
(1) Assay animals: 9 Kunming Mice, of which five were male and four were female, with a weight of 20-22 g (purchased from Lab Animals Center of Chinese Academy of Medical Sciences, License No. scxk (jin) 2005-0001)
(2) Assay medicine: compound in Example 1
Kunming mice were 9, of which 5 were male and 4 were female. Each mouse was administered the compound in Example 1 (20 mg/kg, iv) with a dose volume of 20 ml/kg.
The process for preparing a solution of the compound in Example 1: 4.53 mg of the compound in Example 1 was weighed and dissolved by adding 40 μL of DMSO (dimethylsulfoxide). 340 μL of RH40 (polyoxyethylene castor oil) were added. After mixing homogeneously, 4.156 mL of physiological saline was added to the mixture. After mixing homogeneously, the mixture was filtered with 0.45 μm filter membrane to give a 1 mg/ml solution of the compound in Example 1.
Observation time: 14 days
Observation indicators: weight, appearance, breath, action, reflection, defecation

NCI H460 = assay: Cytotoxicity assay (MTS/MTT), NCI-H460 cells; type: cell-based, human; settings: read-out: Inhibitory Concentration 50 for Cell Growth (IC50)
Description: NCI-H460: human lung cancer cell strains

NCI H446 = assay: Cytotoxicity assay (MTS/MTT), NCI-H446 cells; type: cell-based, human; settings: read-out: Inhibitory Concentration 50 for Cell Growth (IC50)
Description: as §1
NCI-H446: human lung cancer cell strains
as §2, §3, §4

A431 Cells = assay: Cytotoxicity assay (MTS/MTT), A431 cells; type: cell-based, human
Description: A431: epidermoid cell strains

A549 = assay: Cytotoxicity assay (MTS/MTT), A549 cells; type: cell-based, human
Description: as §1
A549: human lung cancer cell strains
as §2, §3, §4

HL-60 cells = assay: Cytotoxicity assay (MTS/MTT), HL-60 cells; type: cell-based, human; settings: for Inhibition Ratio (%): HL-60 cells, concentration of 1 μM
Description: as §1
HL-60: human leukemia cell strains
as §2, §3
(§5) The data were represented by x±s. Inhibition Ratio=(OD values in control groups−OD values in administration groups)/OD values in control groups×100%. Anti-cancer effects were represented by maximum inhibition ratio Imax and inhibitory concentration 50 (IC50). Drawings were obtained with software MicroCal Origin. Inhibition curves of assay compounds for inhibiting the growth of tumor cells were fitted by the four-parameter program Logistic in the software so as to give the inhibitory concentration 50 (IC50:μg/ml) for inhibiting the proliferation of tumor cells.
The exposure concentrations of the assay compounds were 0.001 μg/ml, 0.003 μg/ml, 0.009 μg/ml, 0.027 μg/ml, 0.082 μg/ml, 0.247 μg/ml, 0.741 μg/ml, 2.222 μg/ml, 6.667 μg/ml and 20 μg/ml. The exposure concentrations of adriamycin (as positive drugs) were 1.25 μg/ml, 5 μg/ml and 20 μg/ml. In 96-well plates, 3,000-5,000 cells were inoculated in each well. Four parallel assays were conducted for each concentration.

U937 Cells = assay: Cytotoxicity assay (MTS/MTT), U937 cells; type: cell-based, human; settings: for IC50: U937 Cells, read-out: Inhibitory Concentration 50 for Cell Growth (IC50)
Description: as §1
U937: human lymphoma cell strains
as §2, §3, §5
The exposure concentrations of the assay compounds were 0.001 μg/ml, 0.003 μg/ml, 0.009 μg/ml, 0.027 μg/ml, 0.082 μg/ml, 0.247 μg/ml, 0.741 μg/ml, 2.222 μg/ml, 6.667 μg/ml and 20 μg/ml. […]

K562 = assay: Cytotoxicity assay (MTS/MTT), K562 cells; type: cell-based, human
Description: as §1
K562: human leukemia cell strain
as §2, §3, §4

PC-3 Cells = assay: Cytotoxicity assay (MTS/MTT), PC-3 cells; type: cell-based, human; settings: for IC50: PC-3 Cells, read-out: Inhibitory Concentration 50 for Cell Growth (IC50)
Description: as §1
PC-3: human prostate cancer cell strains
as §2, §3
as §5, with “cells. […]” for “cells.”

DU-145 = assay: Cytotoxicity assay (MTS/MTT), DU-145 cells; type: cell-based, human; settings: read-out: Inhibitory Concentration 50 for Cell Growth (IC50)
Description: as §1
DU-145: human prostate cancer cell strains
as §2, §3, §4

[1] = 20 mg/kg via tail vein, observed for 14 days
[2] = single intravenous injection 20 mg/kg, 9 mice, 14 days observation

## COc1cccc2c1C(=O)c1c(O)c3c(c(O)c1C2=O)C[C@@](O)(C(=O)CO)C[C@@H]3O[C@H]1C[C@H](n2cccc2)[C@@H](O)[C@H](C)O1 [Example 1, 3′-pyrrolyl epirubicin]
786-O; 786-O, read-out: Inhibitory Concentration 50 for Cell Growth (IC50)
  IC50: 74 nM
786-O; kidney cancer 786-0
  Effect on growth of tumor cell strain: strong inhibitory effects
Hep G2
  IC50: 27 nM
THP-1
  IC50: 9 nM
Kunming mice; 20 mg/kg via tail vein, dissected after 14 days
  Findings on dissection at the end of the test: no abnormal phenomena were observed
Kunming mice; [1]
  Change on the weights of the mice: no significant change on the weights
  Death of mice: no animal died
  Other indicators (appearance, breath, action, reflection, defecation): not obviously abnormal
Kunming mice; [2]
  Death Number: 0
  Mortality Rate (%): 0%
Kunming mice; single intravenous injection 20 mg/kg, Day 1
  Average Weight (g) of Mice: 20.9 g
Kunming mice; single intravenous injection 20 mg/kg, Day 2
  Average Weight (g) of Mice: 20.2 g
Kunming mice; single intravenous injection 20 mg/kg, Day 3
  Average Weight (g) of Mice: 20.4 g
Kunming mice; single intravenous injection 20 mg/kg, Day 5
  Average Weight (g) of Mice: 19.7 g
Kunming mice; single intravenous injection 20 mg/kg, Day 6
  Average Weight (g) of Mice: 20.2 g
Kunming mice; single intravenous injection 20 mg/kg, Day 7
  Average Weight (g) of Mice: 19.8 g
Kunming mice; single intravenous injection 20 mg/kg, Day 8
  Average Weight (g) of Mice: 20.0 g
Kunming mice; single intravenous injection 20 mg/kg, Day 9
  Average Weight (g) of Mice: 20.1 g
Kunming mice; single intravenous injection 20 mg/kg, Day 10
  Average Weight (g) of Mice: 20.5 g
Kunming mice; single intravenous injection 20 mg/kg, Day 11
  Average Weight (g) of Mice: 20.4 g
Kunming mice; single intravenous injection 20 mg/kg, Day 12
  Average Weight (g) of Mice: 20.4 g
Kunming mice; single intravenous injection 20 mg/kg, Day 13
  Average Weight (g) of Mice: 20.8 g
Kunming mice; single intravenous injection 20 mg/kg, Day 14
  Average Weight (g) of Mice: 21.1 g
NCI H460
  IC50: 14 nM
NCI H446
  IC50: 160 nM
A431 Cells; read-out: Inhibitory Concentration 50 for Cell Growth (IC50)
  IC50: 6.3 nM
A549; A549, read-out: Inhibitory Concentration 50 for Cell Growth (IC50)
  IC50: 206 nM
A549; lung cancer A549
  Effect on growth of tumor cell strain: strong inhibitory effects
HL-60 cells; HL-60, read-out: Inhibitory Concentration 50 for Cell Growth (IC50)
  IC50: 357 nM
HL-60 cells
  Inhibition Ratio (%): 80%
U937 Cells
  IC50: 12 nM
U937 Cells; lymphoma U937
  Effect on growth of tumor cell strain: strong inhibitory effects
K562; K562, read-out: Inhibitory Concentration 50 for Cell Growth (IC50)
  IC50: 44 nM
K562; human leukemia K562
  Effect on growth of tumor cell strain: strong inhibitory effects
PC-3 Cells
  IC50: 10 nM
PC-3 Cells; human prostate cancer PC-3
  Effect on growth of tumor cell strain: strong inhibitory effects
DU-145
  IC50: 8.6 nM

## COc1cccc2c1C(=O)c1c(O)c3c(c(O)c1C2=O)C[C@@](O)(C(=O)CO)C[C@@H]3O[C@H]1C[C@H](N)[C@@H](O)[C@H](C)O1 [Epirubicin]
THP-1; Homo sapiens
  IC50: 67 nM
NCI H460; Homo sapiens
  IC50: 25 nM
A431 Cells; Homo sapiens, A-431, read-out: Inhibitory Concentration 50 for Cell Growth (IC50)
  IC50: 18 nM
U937 Cells; Homo sapiens, U-937
  IC50: 10 nM
PC-3 Cells; Homo sapiens
  IC50: 110 nM

## COc1cccc2c1C(=O)c1c(O)c3c(c(O)c1C2=O)CC(O)(C(=O)CO)CC3OC1CC(N2C(=O)CCCC2=O)C(O)C(C)O1 (centres unmarked) [Example 5, 3′-glutarimido epirubicin]
HL-60 cells
  Inhibition Ratio (%): 35%

## COc1cccc2c1C(=O)c1c(O)c3c(c(O)c1C2=O)CC(O)(C(=O)CO)CC3OC1CC(N2C(=O)CCC2=O)C(O)C(C)O1 (centres unmarked) [Example 4, 3′-succinimidyl epirubicin]
HL-60 cells
  Inhibition Ratio (%): 62%

## COc1cccc2c1C(=O)c1c(O)c3c(c(O)c1C2=O)C[C@@](O)(C(=O)CO)C[C@@H]3O[C@H]1C[C@H](N2C(=O)c3ccccc3C2=O)[C@@H](O)[C@H](C)O1 [Example 8, 3′-(benzo-(2,3)succinimidyl)epirubicin]
HL-60 cells
  Inhibition Ratio (%): 71%

## COc1cccc2c1C(=O)c1c(O)c3c(c(O)c1C2=O)C[C@@](O)(C(=O)CO)C[C@@H]3O[C@H]1C[C@H](N2C(=O)C=CC2=O)[C@@H](O)[C@H](C)O1 [Example 6, 3′-maleimidyl epirubicin]
HL-60 cells
  Inhibition Ratio (%): 43%

## COc1cccc2c1C(=O)c1c(O)c3c(c(O)c1C2=O)C[C@@](O)(C(=O)CO)C[C@@H]3O[C@H]1C[C@H](N2C(=O)c3cccnc3C2=O)[C@@H](O)[C@H](C)O1 [Example 7, 3′-(pyridino-(2,3)succinimidyl)epirubicin]
HL-60 cells
  Inhibition Ratio (%): 10%

— US8877720B2, “Epirubicin derivatives” (Tianjin Hemay Bio-Tech Co., Ltd., priority 2009, dated 2014)
